Data taken from patent US6440691B1, “Melanins with improved ability to inhibit HIV replication” (Large Scale Biology Corporation, priority 1997, dated 2002).
Where a SMILES comes first, the peptide text is derived from it.

Tests used:
HIV-1 IIIB = assay: Anti-HIV activity: protection of MT-2 cells from viral-induced cytopathic effect, neutral red uptake; assay type: cell-based; details: Table 2, CPE after three days
Procedure: Dried melanins were analyzed for anti-HIV activity essentially as described by Montefiori, et al., 1988, J. Clin. Microbiol. […] In brief, the antiviral activities of the various melanins and melanin derivatives described in the present examples were measured in 96-well microdilution plates. Two-fold serial dilutions of melanins were made in triplicate in a total of 100 μl growth medium (RPMI-1640 containing 12% host-inactivated fetal bovine serum and 50 μg gentamicin/ml) per well. MT-2 cells (5×10^4) in 100 μl of growth medium were added to each well and incubated for 10 minutes. Fifty microliters of virus (5×10^4 TCID50/50 μl) were then added to all wells except for one row of eight noncytopathic control wells; these received growth medium in place of virus. Viral-induced cytopathic effect (CPE) was quantified three days later by vital dye (neutral red) uptake in remaining viable cells. Neutral red uptake is a linear function of cell viability with A540 of 0.025 to 0.85 corresponding to 2×10^4 to 25×10^4 viable cells/well (Montefiori, et al., 1988). Percent protection is defined as the difference in A540 between test wells (cells+melanin+virus) and virus control wells (cells+virus) divided by the difference in between cell control wells (cells only) and virus control wells.

HIV-1 (111a) = system: HIV-1 (111a); parameters: unit not given here; details: Table 1; cited from earlier work
HIV-2 (ROD) = system: HIV-2 (ROD); parameters: unit not given here; details: Table 1; cited from earlier work

| Compound | Effective Dose 50 EC50 (HIV-1 IIIB) | 50% inhibitory concentration IC50, HIV-1 (111a) (HIV-1 (111a)) | 50% inhibitory concentration IC50, HIV-2 (ROD) (HIV-2 (ROD)) |
| --- | --- | --- | --- |
| NCC(=O)N[C@@H](Cc1ccc(O)cc1)C(=O)O [Gly-Tyr] (H-Gly-Tyr-OH) | >50 mg/L |  |  |
| á-cyclodextrin hexasulfate |  | 26.2 | 1.9 |
| á-cyclodextrin tetradecasulfate |  | 0.8 | 1.0 |
| â-cyclodextrin heptasulfate |  | 3.0 | 1.8 |
| ã-cyclodextrin hexadecasulfate |  | 0.2 | 0.4 |
| ã-cyclodextrin octasulfate |  | 0.6 | 1.6 |
